From patent publication USRE35321E, “Tetrazoleacetic acid derivatives having aldose reductase inhibitory activity” (Wakamoto Pharmaceutical Co., Ltd., priority 1990, dated 1996)

biological target: T1, aldose reductase (Rattus norvegicus, UniProt P07943); assay: Aldose reductase inhibitory effect (enzyme from crystalline lenses, DL-glyceraldehyde substrate); type: biochemical, rat (male SD); conditions: 10 mM DL-glyceraldehyde, pH 6.2, 30° C.
T1 construct: Then their crystalline lenses were immediately removed and stored at -80° C; The lenses were homogenized; from tissue; host or cells: crystalline lenses of six-week-old male SD rats
Experimental: Six-weeks-old male SD rates were anesthetized with ether and killed. Then their crystalline lenses were immediately removed and stored at -80° C. […] All operations were conducted at 4° C. and the enzyme solution was stored at -80° C.
More specifically, 0.1 ml of DL glyceraldehyde (final concentration: 10 mM) was added to 0.9 ml of 100 mM sodium potassium phosphate buffer (pH 6.2) which contained lithium sulfate (final concentration: 400 mM), reduced nicotinamide adenine dinucleotide phosphate (final concentration: 0.15 mM), the enzyme solution, and the compound to be evaluated (final concentration: 10^-6 M, 10^-7 M or […]), and then the reaction was conducted at 30° C. for 5 minutes. During the reaction, the change in the absorbance at 340 nm with time was monitored. The maximum reducing rate of the absorbance (U) during the reaction was determined. By subtracting, from this value, the maximum reducing rate (Uo) at 340 nm of the reaction solution before the addition of the substrate (DL-glyceraldehyde), the reaction rate (V=U-Uo) was calculated as a true reaction rate in the presence of the compound to be tested.
The same procedure was repeated except for the absence of the compound to be tested. A true reaction rate (Vo) in case the enzyme was not inhibited was calculated (Vo =U'-Uo '). The aldose reductase inhibitory activity of the test compounds was determined according to the following formula:
Rate of Inhibition (%)=(Vo -V)/Vo ×100

`Cc1ccc(-c2nnnn2CC(=O)O)o1` [Example 2-27, [5-(5-methyl-2-furyl)tetrazol-1-yl] acetic acid] and `O=C(O)Cn1nnnc1-c1ccc(Br)o1` [Example 2-29, [5-(5-bromo-2-furyl)tetrazol-1-yl] acetic acid] are within 1.5-fold of each other in IC50: 150 nM for the first, 160 nM for the second.

`O=C(O)Cn1nnnc1-c1ccc(CCCc2ccccc2)s1` [Example 2-21, [5-(5-phenylpropyl-2-thienyl)tetrazol-1-yl] acetate acid] and `O=C(O)Cn1nnnc1-c1ccc(Cc2ccccc2)s1` [Example 2-9, [5-(5-benzyl-2-thienyl)tetrazol-1-yl] acetic acid] are within 1.5-fold of each other in IC50: 28 nM for the first, 20 nM for the second.

`CSc1ccc(-c2nnnn2CC(=O)O)o1` [Example 2-30, [5-(5-methylthio-2-furyl)tetrazol-1-yl] acetic acid] and `CCCCc1ccc(-c2nnnn2CC(=O)O)o1` [Example 2-28, [5-(5-butyl-2-furyl)tetrazol1-yl-] acetic acid] are within 1.5-fold of each other in IC50: 110 nM for the first, 130 nM for the second.

First: O=C(O)Cn1nnnc1-c1sccc1NS(=O)(=O)c1ccccc1 [Example 2-41, [5-(3-phenylsulfonylamino-2-thienyl)tetrazol-1-yl] acetic acid]
Second: COC(=O)Cn1nnnc1-c1sccc1NS(=O)(=O)c1ccccc1 [Example 1-27, methyl [5-(3-phenylsulfonylamino-2-thienyl)tetrazol-1-yl acetate]
The IC50 of the first is 10-fold lower: 23 nM for the first, 230 nM for the second.

`COCc1ccc(-c2nnnn2CC(=O)O)s1` [Example 2-22, [5-(5-methoxymethyl-2-thienyl)tetrazol-1-yl] acetic acid] and `CCc1ccc(-c2nnnn2CC(=O)O)s1` [Example 2-8, [5-(5-ethyl-2-thienyl)tetrazol-1-yl] acetic acid] are within 1.5-fold of each other in IC50: 31 nM for the first, 21 nM for the second.

`O=C(O)Cn1nnnc1-c1ccsc1Sc1ccccc1` [Example 2-33, [5-(2-phenylthio-3-thienyl)tetrazol-1-yl] acetic acid] and `O=C(O)Cn1nnnc1-c1ccc(Sc2ccccc2)s1` [Example 2-34, [5-(5-phenylthio-2-thienyl)tetrazol-1-yl] acetic acid] are within 1.5-fold of each other in IC50: 24 nM for the first, 26 nM for the second.

Compared with `CS(=O)(=O)Nc1ccsc1-c1nnnn1CC(=O)O` [Example 2-39, [5-(3-methylsulfonylamino-2-thienyl)tetrazol-1-yl] acetic acid], `CCCCS(=O)(=O)Nc1ccsc1-c1nnnn1CC(=O)O` [Example 2-40, [5-(3-butylsulfonylamino-2-thienyl)tetrazol-1-yl] acetic acid] is 1.8-fold lower in IC50: 28 nM for the first, 16 nM for the second.

First: O=C(O)Cn1nnnc1-c1ccoc1Br [Example 2-31, [5-(2-bromo-3-furyl)tetrazol-1-yl] scetic acid]
Second: CSc1occc1-c1nnnn1CC(=O)O [Example 2-32, [5-(2-methylthio-3-furyl)tetrazol-1-yl] acetic acid]
The IC50 of the first is 2.4-fold higher: 85 nM for the first, 35 nM for the second.

Compared with `CCN(CC)S(=O)(=O)c1ccc(-c2nnnn2CC(=O)O)s1` [Example 2-35, [5-[5-(N,N-diethylaminosulfonyl)-2-thienyl]tetrazol-1-yl] acetic acid], `CCCCN(CCCC)S(=O)(=O)c1ccc(-c2nnnn2CC(=O)O)s1` [Example 2-36] is 4.6-fold lower in IC50: 390 nM for the first, 85 nM for the second.

`CC(=O)Nc1ccsc1-c1nnnn1CC(=O)O` [Example 2-17] and `CCCC(=O)Nc1ccsc1-c1nnnn1CC(=O)O` [Example 2-18, [5-(3-propylcarbonylamino-2-thienyl)tetrazol-1-yl] acetic acid] are within 1.5-fold of each other in IC50: 28 nM for the first, 20 nM for the second.

Going from `Cc1sccc1-c1nnnn1CC(=O)O` [Example 2-12, [5-(2-methyl-3-thienyl)tetrazol-1-yl] acetic acid] to `O=C(O)Cn1nnnc1-c1ccsc1Br` [Example 2-24, [5-(2-bromo-3-thienyl)tetrazol-1-yl] acetic acid], the IC50 rises from 10 nM to 38 nM (3.8-fold). The first is the more potent here.

`Cc1ccsc1-c1nnnn1CC(=O)O` [Example 2-2, [5-(3-methyl-2-thienyl)tetrazol-1-yl] acetic acid] and `O=C(O)Cn1nnnc1-c1sccc1O` [Example 2-42, [5-(3-hydroxy-2-thienyl)tetrazol-1-yl] acetic acid] are within 1.5-fold of each other in IC50: 18 nM for the first, 20 nM for the second.

`CCCCOCc1ccc(-c2nnnn2CC(=O)O)s1` [Example 2-23, [5-(5-butoxymethyl-2-thienyl)tetrazol-1-yl] acetic acid] and `CCCCc1ccc(-c2nnnn2CC(=O)O)s1` [Example 2-20, [5-(5-butyl-2-thienyl)tetrazol-1-yl] acetic acid] are within 1.5-fold of each other in IC50: 25 nM for the first, 23 nM for the second.

Going from `O=C(O)Cn1nnnc1-c1ccco1` [Example 2-6, [5-(2-furyl)tetrazol-1-yl] acetic acid] to `O=C(O)Cn1nnnc1-c1ccsc1` [Example 2-5, [5-(3-thienyl)tetrazol-1-yl] acetic acid], the IC50 falls from 60 nM to 21 nM (2.9-fold).

Going from `C[S+]([O-])c1sccc1-c1nnnn1CC(=O)O` (stereo not drawn) [Example 2-43, [5-(2-methylsulfinyl-3-thienyl)tetrazol-1-yl] acetic acid] to `CSc1sccc1-c1nnnn1CC(=O)O` [Example 2-26, [5-(2-methylthio-3-thienyl)tetrazol-1-yl] acetic acid], the IC50 falls from 300 nM to 31 nM (9.7-fold).

`O=C(O)Cn1nnnc1-c1ccc(-c2ccccc2)s1` [Example 2-14, [5-(5-phenyl-2-thienyl)tetrazol-1-yl] acetic acid] and `O=C(O)Cn1nnnc1-c1ccc(Br)s1` [Example 2-11, [5-(5-bromo-1-thienyl)tetrazol-1-yl] acetic acid] are within 1.5-fold of each other in IC50: 21 nM for the first, 19 nM for the second.

`CS(=O)(=O)c1sccc1-c1nnnn1CC(=O)O` [Example 2-44, [5-(2-methylsulfonyl-3-thienyl)tetrazol-1-yl] acetic acid] and `CCN(CC)S(=O)(=O)c1sccc1-c1nnnn1CC(=O)O` [Example 2-38, [5-[2-(N,N-diethylaminosulfonyl)-3-thienyl)tetrazol-1-yl] acetic acid] are within 1.5-fold of each other in IC50: 520 nM for the first, 460 nM for the second.

`COC(=O)Cn1nnnc1-c1ccoc1` [Example 1-7, methyl (5-(3-furyl)tetrazol-1-yl] acetate] and `COC(=O)Cn1nnnc1-c1ccsc1` [Example 1-5, methyl [5-(3-thienyl)tetrazol-1-yl] acetate] are within 1.5-fold of each other in IC50: 740 nM for the first, 960 nM for the second.

`CSc1ccc(-c2nnnn2CC(=O)O)s1` [Example 2-10] and `Cc1ccc(-c2nnnn2CC(=O)O)s1` [Example 2-4, [5-(5-methyl-2-thienyl)tetrazol-1-yl] acetic acid] are within 1.5-fold of each other in IC50: 20 nM for the first, 23 nM for the second.

First: COC(=O)Cn1nnnc1-c1ccsc1SC [Example 3-11, methyl [5-(2-methylthio-3-thienyl)tetrazol-1-yl] acetate]
Second: CCCCc1ccc(-c2nnnn2CC(=O)OC)s1 [Example 3-5, methyl [5-(5-butyl-2-thienyl)tetrazol-1-yl] acetate]
The IC50 of the first is 2.1-fold higher: 380 nM for the first, 180 nM for the second.

First: CCOC(=O)Cn1nnnc1-c1ccsc1 [Example 3-2, ethyl [5-(3-thienyl)tetrazol-1-yl] acetate]
Second: CCCCOc1ccsc1-c1nnnn1CC(=O)O [Example 2-16, [5-(3-butoxy-2-thienyl)tetrazol-1-yl] acetic acid]
The IC50 of the first is 19-fold higher: 580 nM for the first, 31 nM for the second. The second is the more potent here.

`Cc1csc(-c2nnnn2CC(=O)O)c1` [Example 2-3, [5-(4-methyl-2-thienyl)tetrazol-1-yl] acetic acid] and `O=C(O)Cn1nnnc1-c1ccc(CBr)s1` [Example 2-13, [5-(5-bromomethyl-2-thienyl)tetrazol-1-yl] acetic acid] are within 1.5-fold of each other in IC50: 24 nM for the first, 25 nM for the second.

Going from `O=C(O)Cn1nnnc1-c1ccc(S(=O)(=O)N2CCCCC2)s1` [Example 2-37, [5-(5-piperidinosulfonyl2-thienyl)tetrazol-1-yl] acetic acid] to `COc1ccsc1-c1nnnn1CC(=O)O` [Example 2-15, [5-(3-methoxy-2-thienyl)tetrazol-1-yl] acetic acid], the IC50 falls from 230 nM to 29 nM (7.9-fold).

For `O=C(O)Cn1nnnc1-c1sccc1NC(=O)CCc1ccccc1` [Example 2-19, [5-(3-phenethylcarbonylamino-2-thienyl)tetrazol-1-yl] acetic acid], the IC50 was 24 nM.

tested on: accumulation of sorbitol in sciatic nerve; assay: Inhibiting the accumulation of sorbitol in sciatic nerve of streptozotocin diabetic rats; type: in vivo, Sprague-Dawley male rats; conditions: 10 mg/kg oral, twice a day for 5 days
Experimental: Groups of 6 to 8-weeks-old Sprague-Dawley male rats (4 aminals per group) were fasted for 18 hours and streptozotocin was injected through the tail vein in a dose of 60 mg/kg to thus obtain diabetic rats. Immediately after the administration of the streptozotocin, each compound to be tested was orally administered to these rats in the form of a suspension at a dose of 10 mg/kg, 30 mg/kg and 50 mg/kg (each was suspended in a 0.5% sodium carboxymethyl cellulose solution) twice a day (9 o'clock in the morning and 5 o'clock in the afternoon) for 5 days. During the test, the rats took diet and drank water freely. 4 Hours after the final administration of the drug in the 5th day's morning (9 o'clock in the morning), the rats were sacrificed and then the sciatic nerve thereof was removed to determine the amount of sorbitol accumulated therein.
The results are expressed in the percentage obtained while the value obtained on the control to which any drug was not administered is defined to be 100.

First: Cc1ccsc1-c1nnnn1CC(=O)O [Example 2-2, [5-(3-methyl-2-thienyl)tetrazol-1-yl] acetic acid]
Second: O=C(O)Cn1nnnc1-c1ccsc1 [Example 2-5, [5-(3-thienyl)tetrazol-1-yl] acetic acid]
The “Rate of Inhibition of Sorbitol Accumulation” value of the first is lower: 62% for the first, 73% for the second.

For `CC(/C=C1\SC(=S)N(CC(=O)O)C1=O)=C\c1ccccc1` [ONO-2235, (E)-3-carboxymethyl-5-[(2E)-methyl-3-phenylpropenylidene] rhodan, reference compound], the “Rate of Inhibition of Sorbitol Accumulation” value was 0%.

same assay, conditions: 30 mg/kg oral, twice a day for 5 days

First: Cc1ccsc1-c1nnnn1CC(=O)O [Example 2-2, [5-(3-methyl-2-thienyl)tetrazol-1-yl] acetic acid]
Second: O=C(O)Cn1nnnc1-c1ccsc1 [Example 2-5, [5-(3-thienyl)tetrazol-1-yl] acetic acid]
The “Rate of Inhibition of Sorbitol Accumulation” value of the first is higher: 93% for the first, 90% for the second.

In the case of `CC(/C=C1\SC(=S)N(CC(=O)O)C1=O)=C\c1ccccc1` [ONO-2235, (E)-3-carboxymethyl-5-[(2E)-methyl-3-phenylpropenylidene] rhodan, reference compound], the “Rate of Inhibition of Sorbitol Accumulation” value is reported as 0%.

same assay, conditions: 50 mg/kg oral, twice a day for 5 days

`CC(/C=C1\SC(=S)N(CC(=O)O)C1=O)=C\c1ccccc1` [ONO-2235, (E)-3-carboxymethyl-5-[(2E)-methyl-3-phenylpropenylidene] rhodan, reference compound] was tested, and the “Rate of Inhibition of Sorbitol Accumulation” value was 40%.
